Measured values published in PubChem BioAssay AID1963964 (Molecular Pharmacology Branch, DTP, NCI, 2024).

Tested on: 997726-040-R-J2-PDC tumor spheroids, viability
Test: Anticancer human tumor 997726-040-R-J2-PDC patient-derived squamous cell lung carcinoma cell line growth inhibition [PI3K]
Conditions: spheroids with HUVEC and MSC; for IC50: curve of first compound; for viability, T/C: stronger effect = lower value
Outline: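 High-throughput combination screen: PI3K inhibitors crossed with targeted small molecules on complex spheroids of tumor cells, HUVEC and MSCs at 37 degrees C, 5% CO2. Top concentration was at or near clinical Cmax (otherwise 10 microM), with half-log decrements.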

[1] = second compound 0.0316 µM, first compound 0.0316 µM
[2] = second compound 0.0316 µM, first compound 0.1 µM
[3] = second compound 0.0316 µM, first compound 0.316 µM
[4] = second compound 0.0316 µM, first compound 1 µM
[5] = second compound 0.0316 µM, first compound 3.16 µM
[6] = second compound 0.0316 µM, first compound 10 µM
[7] = second compound 0.1 µM, first compound 0.0316 µM
[8] = second compound 0.1 µM, first compound 0.1 µM
[9] = second compound 0.1 µM, first compound 0.316 µM
[10] = second compound 0.1 µM, first compound 1 µM
[11] = second compound 0.1 µM, first compound 3.16 µM
[12] = second compound 0.1 µM, first compound 10 µM
[13] = second compound 0.316 µM, first compound 0.0316 µM
[14] = second compound 0.316 µM, first compound 0.1 µM
[15] = second compound 0.316 µM, first compound 0.316 µM
[16] = second compound 0.316 µM, first compound 1 µM
[17] = second compound 0.316 µM, first compound 3.16 µM
[18] = second compound 0.316 µM, first compound 10 µM
[19] = second compound 1 µM, first compound 0.0316 µM
[20] = second compound 1 µM, first compound 0.1 µM
[21] = second compound 1 µM, first compound 0.316 µM
[22] = second compound 1 µM, first compound 1 µM
[23] = second compound 1 µM, first compound 3.16 µM
[24] = second compound 1 µM, first compound 10 µM
[25] = second compound 0.00316 µM, first compound 0.0316 µM
[26] = second compound 0.00316 µM, first compound 0.1 µM
[27] = second compound 0.01 µM, first compound 0.0316 µM
[28] = second compound 0.01 µM, first compound 0.1 µM
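Note: spheroids exposed to compounds for seven days before readout.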

## CC1(C)CCC(Nc2ncc(C(F)(F)F)c(-c3c[nH]c4c(P(C)(C)=O)c(C#N)ccc34)n2)CN1 (stereo unspecified) + Cc1nc(NC(=O)N2CCCC2C(N)=O)sc1-c1ccnc(C(C)(C)C(F)(F)F)c1
Second compound 0.0316 µM
  IC50: < 31.6 nM
Second compound 0.1 µM
  IC50: < 31.6 nM
Second compound 0.316 µM
  IC50: < 31.6 nM
Second compound 1 µM
  IC50: < 31.6 nM
Second compound 3.16 µM
  IC50: < 31.6 nM
Second compound 10 µM
  IC50: < 31.6 nM
[1]
  viability, T/C: 36.8%
[2]
  viability, T/C: 27%
[3]
  viability, T/C: 30.7%
[4]
  viability, T/C: 29.5%
[5]
  viability, T/C: 28.8%
[6]
  viability, T/C: 5.15%
[7]
  viability, T/C: 27.4%
[8]
  viability, T/C: 28.1%
[9]
  viability, T/C: 27.4%
[10]
  viability, T/C: 29.9%
[11]
  viability, T/C: 29.9%
[12]
  viability, T/C: 5.28%
[13]
  viability, T/C: 23.7%
[14]
  viability, T/C: 21.8%
[15]
  viability, T/C: 21.5%
[16]
  viability, T/C: 24.9%
[17]
  viability, T/C: 21.8%
[18]
  viability, T/C: 2.81%
[19]
  viability, T/C: 16.4%
[20]
  viability, T/C: 13.5%
[21]
  viability, T/C: 16%
[22]
  viability, T/C: 17.5%
[23]
  viability, T/C: 18.1%
[24]
  viability, T/C: 1.51%
Second compound 3.16 µM, first compound 0.0316 µM
  viability, T/C: 14.2%
Second compound 3.16 µM, first compound 0.1 µM
  viability, T/C: 11.1%
Second compound 3.16 µM, first compound 0.316 µM
  viability, T/C: 11.9%
Second compound 3.16 µM, first compound 1 µM
  viability, T/C: 12.9%
Second compound 3.16 µM, first compound 3.16 µM
  viability, T/C: 11.5%
Second compound 3.16 µM, first compound 10 µM
  viability, T/C: 1.02%
Second compound 10 µM, first compound 0.0316 µM
  viability, T/C: 7.35%
Second compound 10 µM, first compound 0.1 µM
  viability, T/C: 6.65%
Second compound 10 µM, first compound 0.316 µM
  viability, T/C: 6.01%
Second compound 10 µM, first compound 1 µM
  viability, T/C: 7.48%
Second compound 10 µM, first compound 3.16 µM
  viability, T/C: 6.58%
Second compound 10 µM, first compound 10 µM
  viability, T/C: 0.41%

## Cn1ncnc1[C@H]1c2n[nH]c(=O)c3cc(F)cc(c23)N[C@@H]1c1ccc(F)cc1 + COc1c(OCCCN2CCOCC2)ccc2c3n(c(=NC(=O)c4cnc(N)nc4)nc12)CCN3
Second compound 0.00316 µM
  IC50: > 100 nM
Second compound 0.01 µM
  IC50: > 100 nM
Second compound 0.0316 µM
  IC50: < 0.316 nM
Second compound 0.1 µM
  IC50: < 0.316 nM
Second compound 0.316 µM
  IC50: < 0.316 nM
Second compound 1 µM
  IC50: < 0.316 nM
Second compound 0.00316 µM, first compound 0.000316 µM
  viability, T/C: 76.4%
Second compound 0.00316 µM, first compound 0.001 µM
  viability, T/C: 77%
Second compound 0.00316 µM, first compound 0.00316 µM
  viability, T/C: 75.6%
Second compound 0.00316 µM, first compound 0.01 µM
  viability, T/C: 82.9%
[25]
  viability, T/C: 77.6%
[26]
  viability, T/C: 70.5%
Second compound 0.01 µM, first compound 0.000316 µM
  viability, T/C: 52%
Second compound 0.01 µM, first compound 0.001 µM
  viability, T/C: 56.6%
Second compound 0.01 µM, first compound 0.00316 µM
  viability, T/C: 61.1%
Second compound 0.01 µM, first compound 0.01 µM
  viability, T/C: 54.8%
[27]
  viability, T/C: 64.2%
[28]
  viability, T/C: 58.1%
Second compound 0.0316 µM, first compound 0.000316 µM
  viability, T/C: 33.7%
Second compound 0.0316 µM, first compound 0.001 µM
  viability, T/C: 35.3%
Second compound 0.0316 µM, first compound 0.00316 µM
  viability, T/C: 33.7%
Second compound 0.0316 µM, first compound 0.01 µM
  viability, T/C: 37.1%
[1]
  viability, T/C: 34.1%
[2]
  viability, T/C: 36.5%
Second compound 0.1 µM, first compound 0.000316 µM
  viability, T/C: 25.1%
Second compound 0.1 µM, first compound 0.001 µM
  viability, T/C: 22.2%
Second compound 0.1 µM, first compound 0.00316 µM
  viability, T/C: 26.5%
Second compound 0.1 µM, first compound 0.01 µM
  viability, T/C: 23.1%
[7]
  viability, T/C: 23.2%
[8]
  viability, T/C: 22.6%
Second compound 0.316 µM, first compound 0.000316 µM
  viability, T/C: 5.23%
Second compound 0.316 µM, first compound 0.001 µM
  viability, T/C: 5.9%
Second compound 0.316 µM, first compound 0.00316 µM
  viability, T/C: 5.66%
Second compound 0.316 µM, first compound 0.01 µM
  viability, T/C: 5.44%
[13]
  viability, T/C: 5.95%
[14]
  viability, T/C: 5.09%
Second compound 1 µM, first compound 0.000316 µM
  viability, T/C: 1.25%
Second compound 1 µM, first compound 0.001 µM
  viability, T/C: 1.22%
Second compound 1 µM, first compound 0.00316 µM
  viability, T/C: 1.38%
Second compound 1 µM, first compound 0.01 µM
  viability, T/C: 1.16%
[19]
  viability, T/C: 1.33%
[20]
  viability, T/C: 1.04%

## C[C@@H](NC(=O)c1ncnc(N)c1Cl)c1ncc(C(=O)Nc2cc(C(F)(F)F)c(Cl)cn2)s1 + COc1c(OCCCN2CCOCC2)ccc2c3n(c(=NC(=O)c4cnc(N)nc4)nc12)CCN3
Second compound 0.00316 µM
  IC50: > 10000 nM
Second compound 0.01 µM
  IC50: > 10000 nM
Second compound 0.0316 µM
  IC50: < 31.6 nM
Second compound 0.1 µM
  IC50: < 31.6 nM
Second compound 0.316 µM
  IC50: < 31.6 nM
Second compound 1 µM
  IC50: < 31.6 nM
[25]
  viability, T/C: 79.8%
[26]
  viability, T/C: 104%
Second compound 0.00316 µM, first compound 0.316 µM
  viability, T/C: 93.6%
Second compound 0.00316 µM, first compound 1 µM
  viability, T/C: 96.8%
Second compound 0.00316 µM, first compound 3.16 µM
  viability, T/C: 86%
Second compound 0.00316 µM, first compound 10 µM
  viability, T/C: 57.2%
[27]
  viability, T/C: 64.1%
[28]
  viability, T/C: 71.6%
Second compound 0.01 µM, first compound 0.316 µM
  viability, T/C: 66.7%
Second compound 0.01 µM, first compound 1 µM
  viability, T/C: 68.9%
Second compound 0.01 µM, first compound 3.16 µM
  viability, T/C: 58.2%
Second compound 0.01 µM, first compound 10 µM
  viability, T/C: 54.8%
[1]
  viability, T/C: 44%
[2]
  viability, T/C: 42.9%
[3]
  viability, T/C: 45.7%
[4]
  viability, T/C: 47.9%
[5]
  viability, T/C: 39.6%
[6]
  viability, T/C: 34.1%
[7]
  viability, T/C: 26.7%
[8]
  viability, T/C: 25.6%
[9]
  viability, T/C: 27.1%
[10]
  viability, T/C: 29.2%
[11]
  viability, T/C: 25.6%
[12]
  viability, T/C: 19.2%
[13]
  viability, T/C: 6.28%
[14]
  viability, T/C: 6%
[15]
  viability, T/C: 7.45%
[16]
  viability, T/C: 7.98%
[17]
  viability, T/C: 5.89%
[18]
  viability, T/C: 3.91%
[19]
  viability, T/C: 2.28%
[20]
  viability, T/C: 1.55%
[21]
  viability, T/C: 1.77%
[22]
  viability, T/C: 1.89%
[23]
  viability, T/C: 1.41%
[24]
  viability, T/C: 0.66%
